From PMC8485325, “Penetrating the Blood-Brain Barrier with New Peptide–Porphyrin Conjugates Having anti-HIV Activity” (Bioconjugate Chemistry, 2021) come the findings set out here.

For one series, the system named is HIV-1NL4-3. Briefly: In vitro inhibition of HIV-1NL4-3 infection of TZM-bl cells (luciferase reporter). In kind it is cell-based. The note with it: for IC50: TZM-bl cells; for HIV inhibition (in words): in vitro, absence of photoactivation. Here is the method: Viral supernatants harvested from pNL4-3-transfected HEK293T cells were titered through the Reed-Muench method[56] based on HIV-1NL4–3 infectivity against TZM-bl cell cultures. TZM-bl cells were seeded at 2 × 10^4 cells/well in tissue culture-treated 96-well microplates from Corning (Corning, NY, USA), and incubated for 24 h. Cells were then incubated with 2-fold serial dilutions of viral supernatants for 3 h, after which the supernatant was replaced with fresh complete medium. After 45 h, TZM-bl cell infection was quantified through luciferase reporter-gene expression levels, under the control of an HIV-1 TAT-dependent LTR promoter[57] using the Luc-Screen luciferase chemiluminescence detection system. Luminescence was measured in an Infinite M200 microplate reader from Tecan (Männedorf, Switzerland). […] Titration was performed with at least four replicates to allow accurate estimation of TCID50 in viral supernatants.
The inhibitory activity of conjugates on HIV-1NL4–3 entry into TZM-bl cells was evaluated as previously described.[58] TZM-bl cells were seeded at 2 × 10^4 cells/well in tissue culture-treated 96-well microplates and incubated for 24 h. HIV-1NL4–3 viral supernatants (100 or 10 TCID50/well) were then incubated for 1 h with 2-fold serial dilutions of either nonconjugated peptide and porphyrins or conjugates, after which the infection mixture was added to TZM-bl cells. Untreated cells (in the absence of peptide–porphyrin conjugate) were used as control. Virions were incubated with cells for 3 h, after which cells were washed to remove unbound virions and new medium was added. After 45 h, infection was quantified by the Luc-Screen chemiluminescence assay. Measurements were performed in an Infinite M200 microplate reader. […] At least three independent experiments were performed for each assay.
A general note: In a reporter assay the amount or activity of a reporter protein is the signal.

The test system of a further series is TZM-bl cells. The format is cell-based. As to the method: TZM-bl Cell Viability Studies
The cytotoxic effects of each PPC on TZM-bl cell cultures were assessed to ensure that HIV inhibition was a result of the compounds effect on the virus and not on the host cells used in the assay. A resazurin reduction fluorometric assay was performed. Resazurin, the active compound in alamarBlue®, is a blue dye that can be reduced to a pink fluorescent intermediate, resorufin, as a result of cell metabolic activity.6 TZM-bl cells were seeded at 2x10^4 cells/well in tissue culture-treated 96-well microplates and incubated for 24 h. Cells were then incubated with serial dilutions (2-fold) of single peptide and porphyrins, or PPC, for 3 h, after which the mixture was replaced with fresh complete medium. Untreated cells (in the absence of peptide-porphyrin combinations) were used as a control. After 42 h, media was replaced with alamarBlue® reagent and incubated for an additional 3 h. Resazurin reduction was quantified by resorufin fluorescent emission intensity, measured in an Infinite M200 microplate reader. Fluorescence emission intensity was collected at 590 nm, using a fixed λ exc of 560 nm. Excitation and emission slits were 9 and 20 nm, respectively. Cell viability was calculated through the following formalism: […]
where I EI corresponds to the resorufin fluorescence emission intensity in the presence of EIs or combination, I control to the fluorescence emission intensity in the absence of EIs and I background to the background fluorescence emission from the non-reduced […]
P5, P4-MP, MP-L-P3 and P4-L-M - are presented here.
TZM-bl cell viability on the concentration range tested.
(1 picture or pasted object on this page, not shown here)
Figure S7. PPCs cytotoxic effects against TZM-bl cells. A resazurin reduction fluorometric assay, dependent on the cell metabolic activity, was used. Cell viability, normalized to the control in the absence of PPC, was measured against three concentrations of each individual PPC: MP-P3 (black), MP-P5 (white), P4-MP (red), MP-L-P3 (blue) and P4-L-MP (green).

Where [1] appears, read: 10 TCDI50 per well (approximate physiological conditions of HIV brain infection), read-out: IC50 HIV inhibition, 10 TCDI50.
Setting [2] is: 100 TCDI50 per well, no-light, read-out: IC50 HIV inhibition, 100 TCDI50.

Like-named read-outs stand apart in the source and are kept apart here. Ends that are not written are not given here.

In the case of “MP-P5: mesoporphyrin IX coupled to the N-terminal amino group of peptide P5 (SGTQEEY-amide) ({mesoporphyrin IX}-SGTQEEY-NH2)”, the IC50 is 10 ± 2.9 µM in the series on HIV-1NL4-3 (setting [1]) and 33.1 ± 1.38 µM in the series with HIV-1NL4-3 (setting [2]). The “HIV inhibition (in words)” value in the series with HIV-1NL4-3 is on record as “inhibit HIV in vitro”. The “TZM-bl cell viability (in words)” value in the series on TZM-bl cells is on record as “did not alter significantly”.
The like results for “P4-MP: mesoporphyrin IX coupled to the C-terminal Lys side chain of peptide P4 (AGILKRWK-amide) (AGILKRWK(mesoporphyrin IX)-NH2)” were, in that order, 5.77 ± 1.17 µM, 34 ± 1.25 µM, “inhibit HIV in vitro” and “did not alter significantly”.

Usually IC50 stands for the concentration at which inhibition is half-maximal.
